From ChEMBL document CHEMBL5518188, “Discovery of 4-amino-1,6-dihydro-7H-pyrrolo[2,3-d]pyridazin-7-one derivatives as potential receptor-interacting serine/threonine-protein kinase 1 (RIPK1) inhibitors” (Eur J Med Chem, 2024)

Columns and labels:
[1] = biological target: T1, Receptor-interacting serine/threonine-protein kinase 1 (Homo sapiens, UniProt Q13546); assay: Inhibition of RIPK1 (unknown origin) in presence of ATP by kinaseProfiler assay
T1 sequence (Q13546 whole entry): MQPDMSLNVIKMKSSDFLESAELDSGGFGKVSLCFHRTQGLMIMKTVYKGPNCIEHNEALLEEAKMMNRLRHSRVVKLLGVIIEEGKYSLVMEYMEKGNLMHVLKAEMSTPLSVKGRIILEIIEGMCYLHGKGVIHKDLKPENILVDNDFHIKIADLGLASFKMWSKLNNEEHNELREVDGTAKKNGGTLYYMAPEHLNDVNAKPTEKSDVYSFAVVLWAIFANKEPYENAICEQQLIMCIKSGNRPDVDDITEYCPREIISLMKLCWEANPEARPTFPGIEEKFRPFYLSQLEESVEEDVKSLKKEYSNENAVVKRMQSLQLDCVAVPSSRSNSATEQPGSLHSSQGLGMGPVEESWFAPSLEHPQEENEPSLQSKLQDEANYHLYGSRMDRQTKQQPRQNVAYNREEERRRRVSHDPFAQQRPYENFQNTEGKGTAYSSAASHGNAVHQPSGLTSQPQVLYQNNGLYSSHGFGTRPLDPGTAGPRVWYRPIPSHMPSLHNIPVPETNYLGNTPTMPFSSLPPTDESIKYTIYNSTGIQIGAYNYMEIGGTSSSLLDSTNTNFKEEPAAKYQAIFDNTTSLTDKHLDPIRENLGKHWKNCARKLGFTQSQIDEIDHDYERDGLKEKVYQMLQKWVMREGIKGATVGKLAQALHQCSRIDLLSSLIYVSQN

[2] = test system: HT-29; assay: Anti-necroptosis activity against TSZ-induced human HT-29 cells; format: functional, cell-based
[3] = test system: U-937; assay: Anti-necroptosis activity against TSZ-induced human U-937 cells; format: functional, cell-based
[4] = test system: L929; assay: Anti-necroptosis activity against TSZ-induced mouse L929 cells; format: functional, cell-based
[5] = Metabolic stability in cryopreserved human liver microsome assessed as half life; format: ADME; settings: cryopreserved liver microsomes

Row | SMILES | IC50 [1] [nM] | EC50 [2] [nM] | EC50 [3] [nM] | EC50 [4] [nM] | half-life [5] [min]
1 | Nc1n[nH]c(=O)c2c1c(-c1ccc3c(c1)CCN3C(=O)Cc1cccc(OC(F)(F)F)c1)nn2CC1COC1 | 73.7 | 15.1 | 5.09 | 5.89 | 19.9
2 | CC(C)CCn1nc(-c2ccc3c(c2)CCN3C(=O)Cc2cccc(OC(F)(F)F)c2)c2c(N)n[nH]c(=O)c21 | 114 | 8.24 | 18.5 | 6.36 | –
3 | NC(=O)c1cc(-c2ccc3c(c2)CCN3C(=O)Cc2cccc(OC(F)(F)F)c2)ccc1N | > 1000 | – | – | – | –
4 | CCC1(Cn2nc(-c3ccc4c(c3)CCN4C(=O)Cc3cccc(OC(F)(F)F)c3)c3c(N)n[nH]c(=O)c32)COC1 | 81.6 | 18.4 | 4.64 | 6.67 | 16.5
5 | CCn1nc(-c2ccc3c(c2)CCN3C(=O)C2(c3ccccc3)CC2)c2c(N)n[nH]c(=O)c21 | > 1000 | > 1000 | > 1000 | > 1000 | –
6 | CCn1nc(-c2ccc3c(c2)CCN3C(C)=O)c2c(N)n[nH]c(=O)c21 | > 1000 | – | – | – | –
7 | CC(C)Cn1cc(-c2ccc3c(c2)CCN3C(=O)Cc2cccc(OC(F)(F)F)c2)c2c(N)n[nH]c(=O)c21 | 44.7 | 1.61 | 1.84 | 8.8 | 19.6
8 | CCn1nc(-c2ccc3c(c2)CCN3C(=O)c2cccc(OC(F)(F)F)c2)c2c(N)n[nH]c(=O)c21 | > 1000 | > 1000 | > 1000 | > 1000 | –
9 | CC(C)=CCn1nc(-c2ccc3c(c2)CCN3C(=O)Cc2cccc(OC(F)(F)F)c2)c2c(N)n[nH]c(=O)c21 | 64.3 | 11.3 | 22.7 | 1.38 | 26.6
10 | CCn1nc(-c2ccc3c(c2)CCN3C(=O)Cc2ccccc2)c2c(N)n[nH]c(=O)c21 | > 1000 | 546 | 1020 | 142 | –
11 | Nc1n[nH]c(=O)c2c1c(-c1ccc3c(c1)CCN3C(=O)Cc1cccc(OC(F)(F)F)c1)nn2Cc1ccc(F)cc1 | 290 | 257 | 112 | 30.2 | –
12 | CCn1nc(-c2ccc3c(c2)CCN3C(=O)Cc2cccc(OC)c2)c2c(N)n[nH]c(=O)c21 | > 1000 | – | – | – | –
13 | CCn1nc(-c2ccc3c(c2)CCN3C(=O)CCc2ccccc2)c2c(N)n[nH]c(=O)c21 | 191 | 149 | 232 | 42.1 | –
14 | CCn1nc(-c2ccc3c(c2)CCN3C(=O)Cc2cc(F)cc(C(F)(F)F)c2)c2c(N)n[nH]c(=O)c21 | 475 | 331 | 283 | 12.8 | –
15 | Nc1n[nH]c(=O)c2c1c(-c1ccc3c(c1)CCN3C(=O)Cc1cccc(OC(F)(F)F)c1)nn2CCC1CCCCC1 | > 1000 | 246 | 103 | 16.2 | –
16 | CC1(Cn2cc(-c3ccc4c(c3)CCN4C(=O)Cc3cccc(C(F)(F)F)c3)c3c(N)n[nH]c(=O)c32)COC1 | 48.7 | 33 | 22 | 1.58 | 85.6
17 | Nc1n[nH]c(=O)c2c1c(-c1ccc3c(c1)CCN3C(=O)Cc1cccc(OC(F)(F)F)c1)nn2CCN1CCCC1 | 512 | 63 | 173 | 54.4 | –
18 | CCn1nc(-c2ccc3c(c2)CCN3C(=O)CCc2cccc(OC(F)(F)F)c2)c2c(N)n[nH]c(=O)c21 | 97.6 | 4.62 | 4.82 | 20.3 | –
19 | Nc1n[nH]c(=O)c2c1c(-c1ccc3c(c1)CCN3C(=O)Cc1cccc(OC(F)(F)F)c1)nn2CC1CCC1 | 68.4 | 34 | 1.87 | 1.35 | –
20 | NC(=O)c1cccc(-c2ccc3c(c2)CCN3C(=O)Cc2cccc(OC(F)(F)F)c2)c1 | 102 | – | – | – | –

Row | SMILES | IC50 [1] [nM] | EC50 [2] [nM] | EC50 [3] [nM] | EC50 [4] [nM] | half-life [5] [min]
21 | CCn1nc(-c2ccc3c(c2)CCN3C(=O)Cc2cccc(F)c2F)c2c(N)n[nH]c(=O)c21 | > 1000 | 579 | 946 | 123 | –
22 | Nc1n[nH]c(=O)c2c1c(-c1ccc3c(c1)CCN3C(=O)Cc1cccc(OC(F)(F)F)c1)nn2CCC1CCCC1 | > 1000 | 134 | 60.1 | 7.61 | –
23 | CCn1nc(-c2ccc3c(c2)CCN3Cc2cccc(OC(F)(F)F)c2)c2c(N)n[nH]c(=O)c21 | > 1000 | > 1000 | 990 | 451 | –
24 | CCn1nc(-c2ccc3c(c2)CCN3C(=O)Cc2ccc(Oc3ccccc3)cc2)c2c(N)n[nH]c(=O)c21 | 941 | 905 | 812 | 311 | –
25 | CCn1nc(-c2ccc3c(c2)CCN3C(=O)[C@H](C)c2ccccc2)c2c(N)n[nH]c(=O)c21 | > 1000 | > 1000 | > 1000 | > 1000 | –
26 | CCn1cc(-c2ccc3c(c2)CCN3C(=O)Cc2cccc(OC(F)(F)F)c2)c2c(=O)[nH]cnc21 | > 1000 | – | – | – | –
27 | CCn1nc(-c2ccc3c(c2)CCN3C(=O)Cc2ccc(OC(F)(F)F)cc2)c2c(N)n[nH]c(=O)c21 | 177 | > 1000 | 638 | 726 | –
28 | CCNc1ncnc(N)c1-c1ccc2c(c1)CCN2C(=O)Cc1cccc(OC(F)(F)F)c1 | > 1000 | – | – | – | –
29 | Cn1nc(-c2ccc3c(c2)CCN3C(=O)Cc2cccc(OC(F)(F)F)c2)c2c(N)n[nH]c(=O)c21 | 140 | 21.4 | 37.1 | 3.4 | –
30 | CCn1nc(-c2ccc3c(c2)CCN3C(=O)Cc2cccc(C(F)(F)F)c2)c2c(N)n[nH]c(=O)c21 | 135 | 11.3 | 1.38 | 1.75 | –
31 | CCn1nc(-c2ccc3c(c2)CCN3C(=O)CC2CCCCC2)c2c(N)n[nH]c(=O)c21 | > 1000 | 891 | 879 | 64.5 | –
32 | CCn1nc(-c2ccc3c(c2)CCN3C(=O)Cc2ccc3c(c2)OCO3)c2c(N)n[nH]c(=O)c21 | 915 | 562 | 703 | 114 | –
33 | CCn1cc(-c2ccc3c(c2)CCN3C(=O)Cc2cccc(OC(F)(F)F)c2)c2ncnc(N)c21 | > 1000 | – | – | – | –
34 | CCn1nc(-c2ccc3c(c2)CCN3C(=O)CCc2cccc(C(F)(F)F)c2)c2c(N)n[nH]c(=O)c21 | 111 | 19.3 | 33 | 4.71 | –
35 | CCc1nc(-c2ccc3c(c2)CCN3C(=O)Cc2cccc(OC(F)(F)F)c2)c2c(N)nccn12 | 112 | – | – | – | –
36 | Nc1n[nH]c(=O)c2c1c(-c1ccc3c(c1)CCN3C(=O)Cc1cccc(OC(F)(F)F)c1)nn2CCC1CC1 | 70.3 | 18.2 | 4.04 | 3.67 | –
37 | CC(C)(C)c1ccc(Cn2nc(-c3ccc4c(c3)CCN4C(=O)Cc3cccc(OC(F)(F)F)c3)c3c(N)n[nH]c(=O)c32)cc1 | > 1000 | > 1000 | > 1000 | 659 | –
38 | NC(=O)c1cncc(-c2ccc3c(c2)CCN3C(=O)Cc2cccc(OC(F)(F)F)c2)c1 | 157 | – | – | – | –
39 | CCn1nc(-c2ccc3c(c2)CCN3C(=O)Cc2cccc(F)c2)c2c(N)n[nH]c(=O)c21 | > 1000 | 597 | 722 | 45.6 | –
40 | Nc1nc2cccc(-c3ccc4c(c3)CCN4C(=O)Cc3cccc(OC(F)(F)F)c3)n2n1 | > 1000 | – | – | – | –
